“Also recorded” adds a separate entry of the source.
What was measured:
[1] = test system: TNF-α secretion by splenocytes; assay: TNF-α cytokine suppression assay: MSCs in static co-culture with LPS- or PHA-activated splenocytes; type: cell-based, mouse; conditions: for ability of shear treated MSC to suppress TNF-α production: inhibitor 10 μM, six MSC donor lines, compared to Static Vehicle
Procedure: FIG. 12 illustrates TNF-αcytokine suppression assays that highlight functional enhancement of MSC immunomodulation. Human MSCs preconditioned by mechanical force (15 dyne/cm2 shear stress for 3 hours) are placed in static co-culture with lipopoly-saccharide (LPS) or phytohaemagglutinin (PHA)-activated splenocytes including macrophages, neutrophils, NK, B, and T cells. […] Lower values correspond to greater anti-inflammatory potency. hBM MSC, human bone marrow MSC; hAF MSC, amniotic fluid MSC; hAD MSC, adipose-derived MSC. P-values calculated by paired t-test, equal variance.
Asterisks indicate p<0.001 compared to Static Vehicle. n=6 indicates six different MSC donor lines included in data shown.
(§1) Similarly it was determined utilizing commercially available ELISAs that the media from human MSCs cultures that had been subject to fluid shear stress also contained immunomodulatory proteins, such as prostaglandin E2. In addition, Western blotting confirmed elevated protein levels (translation) of COX2, TSG6, and IL1RN. Actin protein expression levels, which are constant, were used as a control for baseline protein expression. […] It was also determined that this induction could be abrogated by the addition of 10 uM of the NF-kappa B antagonist BAY11-7085 (FIG. 11). Furthermore by utilizing commercially available ELISAs, it was determined that the media from human MSCs cultures that had been subject to fluid shear stress for as little as 3 hours had immunosuppressive activity, as evidenced by the 10-50% reduction in TNF-α when treated hMSCs were co-cultured with activated immune cells from the spleen (FIG. 12).

COX2 protein = assay: Western blot of COX2 protein in fluid shear stressed human MSCs; type: cell-based; conditions: BAY11-7085 10 μM; human MSC, 8 hours of fluid shear stress
Procedure: FIG. 11 illustrates representative Western blots showing increased intracellular COX2 protein, which is reduced by NF-kB antagonist BAY11-7085 (10 μM).
A pilot study was conducted to provide proof of principle that fluid shear stress can be used to condition stem cells, alter gene expression, and enhance functional activities. To exemplify the conditioning activity of shear stress of the type provided by the present system, but on a much smaller analytical scale, force (shear stress) was applied using custom fabricated slides or IBIDI® small-scale microfluidics channel slides obtained from IBIDI, LLC. (Verona, WI, USA). Human samples were harvested from bone marrow (BM), amniotic fluid (AF), or adipose (AD) tissue, processed for isolation and expansion of hMSC, and stored frozen. […] The number of live cells present was determined using trypan blue dye exclusion. Live cell counts were determined on a hemacytometer and the cells were resuspended to obtain the desired concentration for each assay (see Table 1). […]
Similarly it was determined utilizing commercially available ELISAs that the media from human MSCs cultures that had been subject to fluid shear stress also contained immunomodulatory proteins, such as prostaglandin E2. […]

human amniotic fluid MSC = assay: Priming agents combined with shear stress: anti-inflammatory signaling in human amniotic MSC line; type: cell-based
Procedure: FIG. 14 illustrates that priming agents complement shear-induced anti-inflammatory signaling. Darkened bars represent treatment combinations that indicate a substantial induction of the pathway by shear stress and cytokines (IFN-γ, 20 ng/ml; TNF-α, 50 ng/ml). In this low-performance human amniotic MSC line, TSG6 was induced by shear stress only. IDO was induced by IFN-γ only. hAF MSC, human amniotic fluid MSC.
as §1

`CC(C)(C)c1ccc(S(=O)(=O)/C=C/C#N)cc1` [BAY11-7085] was tested, and the “ability of shear treated MSC to suppress TNF-α production” value (“ability of shear treated MSC” below) [1] was “abrogate the positive effects of shear stress” and the “shear-induced intracellular COX2 protein (Western blot)” value (COX2 protein) was “abrogated; also recorded: reduced”.

For `COc1ccc2c(c1)c(CC(=O)O)c(C)n2C(=O)c1ccc(Cl)cc1` [Indomethacin], the “ability of shear treated MSC” value [1] was “abrogate the positive effects of shear stress”.

For IFN-γ: cytokine used as priming agent, the IDO induction (human amniotic fluid MSC; IFN-γ 20 ng/ml, low-performance human amniotic MSC line) was “induced” and the “induction of COX2 and HMOX1 in sheared MSCs with added priming agent” value (human amniotic fluid MSC; addition of IFN-γ to sheared MSCs versus MSC not subject to shear) was “greater induction”.

In the case of `CS(=O)(=O)Nc1ccc([N+](=O)[O-])cc1OC1CCCCC1` [NS-398], the “ability of shear treated MSC” value [1] is reported as “abrogate the positive effects of shear stress”.

For `CCCCC(C)(C)C(O)C=CC1C(O)CC(=O)C1CC=CCCCC(=O)O` (stereo not shown) [dmPGE2, 16,16′-dimethyl prostaglandin E2], the “TNF-α production with ectopic dmPGE2” value ([1]; dmPGE2 10 μM) was “reduced TNF-α to levels produced in the presence of sheared MSCs; also recorded: mimics MSC suppression”.
